Laboratory results from ChEMBL document CHEMBL1144640, “Novel pyrazole derivatives as potent inhibitors of type II topoisomerases. Part 1: synthesis and preliminary SAR analysis” (Bioorg Med Chem Lett, 2007).
Values after ≈ are worked out from the molar mass of the structure shown.

Experiments:
[1] = Inhibition of bacterial DNA gyrase; parameters: species or system Bacteria
Escherichia coli = assay: Antibacterial activity against Escherichia coli KL16; type: functional
Staphylococcus aureus = assay: Antibacterial activity against Staphylococcus aureus ATCC 13709; type: functional
Streptococcus pneumoniae = assay: Antibacterial activity against Streptococcus pneumonia ATCC 49619; type: functional
[2] = Inhibition of bacterial topoisomerase 4; parameters: species or system Bacteria

Question: With `COc1ccc2nccc(-n3cc4c(n3)CCN(Cc3ccc5c(c3)OCCO5)C4)c2c1` as the molecule, how does the IC50 [1] read?
Answer: > 8 µg/mL

Question: And the MIC (Escherichia coli)?
Answer: > 128 µg/mL

Question: And the MIC (Staphylococcus aureus)?
Answer: > 128 µg/mL

Question: And the MIC (Streptococcus pneumoniae)?
Answer: > 128 µg/mL

Question: For `COc1ccc2nccc(-n3ncc4c3CCN(Cc3ccc5c(c3)OCCO5)C4)c2c1`, which IC50 [1] is on record?
Answer: > 8 µg/mL

Question: And the MIC (Escherichia coli)?
Answer: > 128 µg/mL

Question: What about the MIC (Staphylococcus aureus) of the same molecule?
Answer: > 128 µg/mL

Question: And the MIC (Streptococcus pneumoniae)?
Answer: > 128 µg/mL

Question: Which IC50 [1] does the source give for `COc1ccc2nccc(-n3ncc4c3CCC(NCc3ccc5c(c3)OCCO5)C4)c2c1` (stereo not given) here?
Answer: > 8 µg/mL

Question: And the MIC (Escherichia coli)?
Answer: > 128 µg/mL

Question: And the MIC (Staphylococcus aureus)?
Answer: 16 µg/mL (≈ 36.2 µM)

Question: What about the MIC (Streptococcus pneumoniae) of the same molecule?
Answer: 32 µg/mL (≈ 72.3 µM)

Question: Which results are given for `COc1ccc2nccc(-n3cc4c(n3)CCC(NCc3ccc5c(c3)NC(=O)CS5)C4)c2c1` (stereo not given)?
Answer: IC50 [1]: 0.25 µg/mL (≈ 0.53 µM); IC50 [2]: 0.03 µg/mL (≈ 0.0636 µM); MIC (Escherichia coli): 2 µg/mL (≈ 4.24 µM); MIC (Staphylococcus aureus): 0.25 µg/mL (≈ 0.53 µM); MIC (Streptococcus pneumoniae): 0.5 µg/mL (≈ 1.06 µM)

Question: Which results are given for `COc1ccc2nccc(-n3cc4c(n3)CCC(NC(=O)c3ccc5c(c3)NC(=O)CS5)C4)c2c1` (stereo not given)?
Answer: IC50 [1]: 1 µg/mL (≈ 2.06 µM); IC50 [2]: 0.125 µg/mL (≈ 0.257 µM); MIC (Escherichia coli): 4 µg/mL (≈ 8.24 µM); MIC (Staphylococcus aureus): 4 µg/mL (≈ 8.24 µM); MIC (Streptococcus pneumoniae): 2 µg/mL (≈ 4.12 µM)

Question: Which IC50 [1] does the source give for `COc1ccc2nccc(-n3cc4c(n3)CCC(NCc3ccc5c(c3)NC(=O)CS5)C4)c2n1` (stereo not given) here?
Answer: 0.25 µg/mL (≈ 0.529 µM)

Question: And the IC50 [2]?
Answer: 0.016 µg/mL (≈ 0.0339 µM)

Question: What about the MIC (Escherichia coli) of the same molecule?
Answer: 1 µg/mL (≈ 2.12 µM)

Question: What about the MIC (Staphylococcus aureus) of the same molecule?
Answer: 0.25 µg/mL (≈ 0.529 µM)

Question: What about the MIC (Streptococcus pneumoniae) of the same molecule?
Answer: 2 µg/mL (≈ 4.23 µM)

Question: What does the source list for `COc1ccc2nccc(-n3cc4c(n3)CCC(NC(=O)c3ccc5c(c3)NC(=O)CS5)C4)c2n1` (stereo not given)?
Answer: IC50 [1]: 0.06 µg/mL (≈ 0.123 µM); IC50 [2]: 0.25 µg/mL (≈ 0.514 µM); MIC (Escherichia coli): 128 µg/mL (≈ 263 µM); MIC (Staphylococcus aureus): 0.125 µg/mL (≈ 0.257 µM); MIC (Streptococcus pneumoniae): 4 µg/mL (≈ 8.22 µM)

Question: For `COc1ccc2nccc(-n3cc4c(n3)CCN(C(=O)c3ccc5c(c3)NC(=O)CS5)CC4)c2n1`, which IC50 [1] is on record?
Answer: 0.25 µg/mL (≈ 0.514 µM)

Question: And the MIC (Escherichia coli)?
Answer: 2 µg/mL (≈ 4.11 µM)

Question: What about the MIC (Staphylococcus aureus) of the same molecule?
Answer: 1 µg/mL (≈ 2.06 µM)

Question: What about the MIC (Streptococcus pneumoniae) of the same molecule?
Answer: 2 µg/mL (≈ 4.11 µM)

Question: Which IC50 [1] does the source give for `COc1ccc2nccc(-n3ncc4c3CCC(NCc3ccc5c(c3)NC(=O)CS5)C4)c2c1` (stereo not given) here?
Answer: 2 µg/mL (≈ 4.24 µM)

Question: And the MIC (Escherichia coli)?
Answer: > 128 µg/mL

Question: And the MIC (Staphylococcus aureus)?
Answer: > 128 µg/mL

Question: What about the MIC (Streptococcus pneumoniae) of the same molecule?
Answer: > 128 µg/mL

Question: What does the source list for `COc1ccc2nccc(-n3cc4c(n3)CC(NC(=O)c3ccc5c(c3)NC(=O)CS5)CC4)c2c1` (stereo not given)?
Answer: IC50 [1]: > 8 µg/mL; IC50 [2]: 0.5 µg/mL (≈ 1.03 µM); MIC (Escherichia coli): 8 µg/mL (≈ 16.5 µM); MIC (Staphylococcus aureus): 8 µg/mL (≈ 16.5 µM); MIC (Streptococcus pneumoniae): 4 µg/mL (≈ 8.24 µM)

Question: For `COc1ccc2nccc(-n3cc4c(n3)CCC(NCc3ccc5c(c3)OCCO5)C4)c2c1` (stereo not given), which IC50 [1] is on record?
Answer: 2 µg/mL (≈ 4.52 µM)

Question: What about the IC50 [2] of the same molecule?
Answer: 0.06 µg/mL (≈ 0.136 µM)

Question: And the MIC (Escherichia coli)?
Answer: 64 µg/mL (≈ 145 µM)

Question: What about the MIC (Staphylococcus aureus) of the same molecule?
Answer: 0.5 µg/mL (≈ 1.13 µM)

Question: What about the MIC (Streptococcus pneumoniae) of the same molecule?
Answer: 0.5 µg/mL (≈ 1.13 µM)
